In PMC9114674, “Synthesis of New 5′-Norcarbocyclic Aza/Deaza Purine Fleximers - Noncompetitive Inhibitors of E.coli Purine Nucleoside Phosphorylase” (Frontiers in Chemistry, 2022):

Columns and labels:
[1] = target: T1, E. coli purine nucleoside phosphorylase (PNP) (Escherichia coli, UniProt P0ABP8); assay: HPLC inosine phosphorolysis assay with recombinant enzyme, non-competitive inhibition kinetics; assay type: biochemical
T1 construct: gene deoD
T1 sequence (P0ABP8 2-239): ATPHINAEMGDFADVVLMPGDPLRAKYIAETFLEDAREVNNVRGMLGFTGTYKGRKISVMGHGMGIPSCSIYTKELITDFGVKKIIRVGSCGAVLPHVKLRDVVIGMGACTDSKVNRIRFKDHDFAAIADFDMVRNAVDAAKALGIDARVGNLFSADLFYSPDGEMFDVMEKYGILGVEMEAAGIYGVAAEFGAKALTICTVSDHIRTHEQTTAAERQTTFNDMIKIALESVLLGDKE

[2] = substrate: OC[C@H]1O[C@@H](n2cnc3c(O)ncnc32)[C@H](O)[C@@H]1O; assay: purified protein; assay type: biochemical, Escherichia coli; conditions: phosphate active site

Nc1ccncc1-c1cnn([C@@H]2C[C@H](O)[C@@H](O)[C@H]2O)c1 [compound 1, 1-(2′,3′,4′-Trihydroxycyclopent-1′-yl)-4-(4-aminopyridin-3-yl)pyrazole]
Ki [1]: 17 ± 4 mM

Nc1ncccc1-c1cnn([C@@H]2C[C@H](O)[C@@H](O)[C@H]2O)c1 [compound 2, 1-(2′,3′,4′-Trihydroxycyclopent-1′-yl)-4-(2-aminopyridin-3-yl)pyrazole]
Ki [1]: 14 ± 1 mM

Nc1ncncc1-c1cnn([C@@H]2C[C@H](O)[C@@H](O)[C@H]2O)c1 [compound 3, 1-(2′,3′,4′-Trihydroxycyclopent-1′-yl)-4-(4-aminopyrimidin-3-yl)pyrazole]
Ki [1]: 24 ± 3 mM

B1: E. coli purine nucleoside phosphorylase (PNP) (Escherichia coli K-12) (protein)
chain: ATPHINAEMGDFADVVLMPGDPLRAKYIAETFLEDAREVNNVRGMLGFTGTYKGRKISVMGHGMGIPSCSIYTKELITDFGVKKIIRVGSCGAVLPHVKLRDVVIGMGACTDSKVNRIRFKDHDFAAIADFDMVRNAVDAAKALGIDARVGNLFSADLFYSPDGEMFDVMEKYGILGVEMEAAGIYGVAAEFGAKALTICTVSDHIRTHEQTTAAERQTTFNDMIKIALESVLLGDKE
Km [2]: 130 ± 10 µM | kcat [2]: 900 ± 60 s⁻¹
